# Reference: PMC3601116, “Surfactant Protein D Modulates HIV Infection of Both T-Cells and Dendritic Cells” (PLoS ONE, 2013)
# What was measured:
# [1] = target: T1, Surfactant Protein D (SP-D) (Homo sapiens, UniProt P35247); assay: SPR competition of SP-D ([…]) binding to immobilised biotinylated gp120 IIIB; details: 5 mM CaCl2, SP-D in solution, lectin site (CRD), competes with gp120 glycans
# T1 construct: gene SFTPD; dodecamer (four trimeric units)
# T1 sequence (P35247 21-375): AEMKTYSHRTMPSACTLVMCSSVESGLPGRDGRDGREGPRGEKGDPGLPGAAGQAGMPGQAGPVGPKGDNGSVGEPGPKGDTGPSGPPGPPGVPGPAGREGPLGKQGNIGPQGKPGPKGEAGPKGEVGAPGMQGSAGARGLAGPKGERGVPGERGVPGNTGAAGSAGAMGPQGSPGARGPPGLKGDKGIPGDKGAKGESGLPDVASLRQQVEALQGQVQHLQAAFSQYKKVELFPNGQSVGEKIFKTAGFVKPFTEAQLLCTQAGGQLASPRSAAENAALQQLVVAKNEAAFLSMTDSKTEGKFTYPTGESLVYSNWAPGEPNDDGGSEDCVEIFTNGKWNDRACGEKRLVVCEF
# [2] = target: T1, Surfactant Protein D (SP-D); assay: SPR competition of inactivated HIV BaL particles binding to immobilised SP-D; details: pH 7.4, calcium, 25 C, lectin site (CRD), competes with HIV glycans
# [3] = target: recombinant gp120 IIIB (HIV strain IIIB) (UniProt P04578); assay: ELISA; competition: gp120 IIIB (2 µg/mL) immobilised; biotinylated soluble DC-SIGN, biotinylated soluble CD4 or CVN added together with SP-D (0-40 µg/mL); absorbance without competitor taken as 100%
Molecule,IC50 ([1]; read-out: IC50) [mM],IC50 [1] [mM],other results
OC[C@H]1OC(O)[C@H](O)[C@@H](O)[C@H]1O (stereo partly drawn) [D-galactose],32.2,,
CC(=O)N[C@H]1C(O)O[C@H](CO)[C@@H](O)[C@@H]1O (stereo partly drawn) [GlcNAc],,22.9,
OC[C@H]1OC(O)[C@H](O)[C@@H](O)[C@@H]1O (stereo partly drawn) [glucose],,,IC50 [2]: 5.4 mM
OC[C@H]1O[C@H](O[C@H]2[C@H](O)[C@@H](O)C(O)O[C@@H]2CO)[C@H](O)[C@@H](O)[C@@H]1O (stereo partly drawn) [maltose],,6.5,
OC[C@H]1OC(O)[C@@H](O)[C@@H](O)[C@@H]1O (stereo partly drawn) [mannose],7.8,,
Surfactant Protein D (from UniProt P35247 21-375) (natural protein),,,maximum inhibition of sDC-SIGN binding to gp120 [3]: 80%
